Experiment [1] has as its target T1, human motilin receptor (Homo sapiens, UniProt O43193). Briefly: Aequorin functional assay (motilin receptor). Particulars: for IC50: functional activity, antagonist testing vs motilin 0.5 nM (EC80). Format: cell-based. Also noted: host or cells: CHO-K1 cells co-expressing Gα16 and mitochondrially targeted Aequorin. On the procedure: B. Aequorin Functional Assay (Motilin Receptor)
The evaluation of compounds of the invention for functional activity can be conducted according to literature methods or as described below. (Carreras, C. W.; Siani, M. A.; Santi, D. V.; Dillon, S. B. Anal. Biochem. 2002, 300, 146-151.)
• Membranes were prepared using AequoScreen™ (EUROSCREEN, Belgium) cell lines expressing the human motilin receptor (cell line ES-380-A; receptor accession #AF034632). This cell line is constructed by transfection of the human motilin receptor into CHO-K1 cells co-expressing Gα16 and the mitochondrially targeted Aequorin (Ref. #ES-WT-A5). • Motilin (Bachem, #H-4385) • Assay buffer: DMEM-F12 (Dulbeccoe's Modified Eagles Medium) with 15 mM HEPES and 0.1% BSA (pH 7.0) • Coelenterazine (Molecular Probes™, Leiden, The Netherlands) Final Test Concentrations (N=5) for Compounds: • 10, 3.16, 1.0, 0.316, 0.10 μM. Compound Handling:
Compounds were provided as dry films at a quantity of approximately 1.2 μmol in pre-formatted 96-well plates. Compounds were dissolved in 100% DMSO at a concentration of 10 mM and stored at −20° C. until further use. Daughter plates were prepared at a concentration of 500 μM in 30% DMSO with 0.1% BSA and stored at −20° C. until testing. On the test day, compounds were allowed to thaw at room temperature and than diluted in assay buffer according to the desired test concentrations. Under these conditions, the maximum final DMSO concentration in the assay was 0.6%.
Cells are collected from culture plates with Ca^2+ and Mg^2+-free phosphate buffered saline (PBS) supplemented with 5 mM EDTA, pelleted for 2 minutes at 1000×g, resuspended in assay buffer (see above) at a density of 5×10^6 cells/mL and incubated overnight in the presence of 5 μM coelenterazine. After loading, cells were diluted with assay buffer to a concentration of 5×10^5 cells/mL.
For agonist testing, 50 μL of the cell suspension was mixed with 50 μL of the appropriate concentration of test compound or motilin (reference agonist) in 96-well plates (duplicate samples). The emission of light resulting from receptor activation was recorded using the Functional Drug Screening System 6000 ‘FDSS 6000’ (Hamamatsu Photonics K. K., Japan).
For antagonist testing, an approximate EC80 concentration of motilin (i.e. 0.5 nM; 100 μL) was injected onto the cell suspension containing the test compounds (duplicate samples) 15-30 minutes after the end of agonist testing and the consequent emission of light resulting from receptor activation was measured as described in the paragraph above.
Results are expressed as Relative Light Units (RLU). Concentration response curves were analyzed using GraphPad™ Prism® (GraphPad Software, San Diego, Calif.) by non-linear regression analysis (sigmoidal dose-response) based on the equation E=Emax/(1+EC50/C)n where E is the measured RLU value at a given agonist concentration (C), Emax is the maximal response, EC50 is the concentration producing 50% stimulation and n is the slope index. For agonist testing, results for each concentration of test compound were expressed as percent activation relative to the signal induced by motilin at a concentration equal to the EC80 (i.e. 0.5 nM). For antagonist testing, results for each concentration of test compound were expressed as percent inhibition relative to the signal induced by motilin at a concentration equal to the EC80 (i.e. 0.5 nM).

For experiment [2], the target named is T1, human motilin receptor. The experiment is described as follows: Competitive radioligand binding assay (motilin receptor). Further details: purchased PerkinElmer (SignalScreen) 6110544; host or cells: CHO cells, stably transfected; membranes. Particulars: [125I]-motilin competition, membranes of CHO cells with human motilin receptor; read-out: Ki. How it is done:
A. Competitive Radioligand Binding Assay (Motilin Receptor)
The competitive binding assay at the human motilin receptor was carried out analogously to assays described in the literature.
• Membranes were prepared from CHO cells stably transfected with the human motilin receptor and utilized at a quantity of 1.5 μg/assay point. [PerkinElmer™ SignalScreen Product #6110544] • [^125I]-Motilin (PerkinElmer, #NEX-378); final concentration: 0.04-0.06 nM • Motilin (Bachem™, #H-4385); final concentration: 1 μM • Multiscreen Harvest plates-GF/B (Millipore™, #MAHFB1H60) • Deep-well polypropylene titer plate (Beckman Coulter™, #267006) • TopSeal-A (PerkinElmer, #6005185) • Bottom seal (Millipore, #MATAH0P00) • MicroScint-0 (PerkinElmer, #6013611) • Binding Buffer: 50 mM Tris-HCl (pH 7.4), 10 mM MgCl2, 1 mM EDTA, 0.1% BSA Assay Volumes: • 150 μL of membranes diluted in binding buffer • 10 μL of compound diluted in binding buffer • 10 μL of radioligand ([^125I]-Motilin) diluted in binding buffer Final Test Concentrations (N=11) for Compounds: • 10, 5.0, 2.0, 1.0, 0.50, 0.20, 0.10, 0.050, 0.020, 0.010, 0.0050 μM. Compound Handling:
Compounds were provided frozen on dry ice at a stock concentration of 10 mM diluted in 100% DMSO and stored at −20° C. until the day of testing. On the test day, compounds were allowed to thaw at room temperature and than diluted in assay buffer according to the desired test concentrations. Under these conditions, the maximum final DMSO concentration in the assay was 0.5%.
In deep-well plates, diluted cell membranes (1.5 μg/mL) are combined with 10 μL of either binding buffer (total binding, N=5), 1 μM motilin (non-specific binding, N=3) or the appropriate concentration of test compound. The reaction is initiated by addition of 10 μL of [^125I]-motilin (final conc. 0.04-0.06 nM) to each well. Plates are sealed with TopSeal-A, vortexed gently and incubated at room temperature for 2 hours. The reaction is arrested by filtering samples through pre-soaked (0.3% polyethyleneimine, 2 h) Multiscreen Harvest plates using a Tomtec Harvester, washed 9 times with 500 μL of cold 50 mM Tris-HCl (pH 7.4), and than plates are air-dried in a fumehood for 30 minutes. A bottom seal is applied to the plates prior to the addition of 25 μL of MicroScint-0 to each well. Plates are than sealed with TopSeal-A and counted for 30 sec per well on a TopCount Microplate Scintillation and Luminescence Counter (PerkinElmer) where results are expressed as counts per minute (cpm).
Data are analyzed by GraphPad™ Prism® (GraphPad Software, San Diego, Calif.) using a variable slope non-linear regression analysis.
[formula] where total and non-specific binding represent the cpm obtained in the absence or presence of 1 μM motilin, respectively.

T1 sequence (O43193 whole entry): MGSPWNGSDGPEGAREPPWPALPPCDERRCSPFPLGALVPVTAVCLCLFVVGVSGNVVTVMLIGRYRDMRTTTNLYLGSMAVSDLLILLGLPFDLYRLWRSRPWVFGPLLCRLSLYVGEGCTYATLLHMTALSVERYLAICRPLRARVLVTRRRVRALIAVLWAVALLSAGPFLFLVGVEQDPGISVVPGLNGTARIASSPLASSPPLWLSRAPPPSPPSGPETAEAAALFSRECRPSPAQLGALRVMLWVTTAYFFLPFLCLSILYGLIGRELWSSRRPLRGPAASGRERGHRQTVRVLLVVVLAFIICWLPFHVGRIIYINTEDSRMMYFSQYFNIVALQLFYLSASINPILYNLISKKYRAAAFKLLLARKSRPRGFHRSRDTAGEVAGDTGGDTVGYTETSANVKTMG

Take `CC(C)[C@H]1NC(=O)[C@@H](Cc2cccc(C(F)(F)F)c2)NCCOc2ccccc2CCCNC(=O)[C@H](CNC(=N)N)NC1=O` [Compound 503]: at human motilin receptor [1], the IC50 (usually the concentration that inhibits the measured activity by half) was at most 100 nM.
On human motilin receptor [1], `CC(C)[C@H]1NC(=O)[C@@H](Cc2cccc(C(F)(F)F)c2)NCCOc2ccccc2C[C@@H](C)CNC(=O)[C@H](CNC(=N)N)NC1=O` [Compound 504] returned an IC50 of at most 100 nM. Further, the Ki (as a rule, a dissociation constant, usually derived from enzyme kinetics or from competition with a known ligand) at human motilin receptor [2] is at most 100 nM.
`CC(C)[C@H]1NC(=O)[C@@H](Cc2cccc(C(F)(F)F)c2)NCCOc2ccccc2C[C@H](C)CNC(=O)[C@H](CNC(=N)N)NC1=O` [Compound 505] had a 50% inhibitory concentration (IC50) against human motilin receptor [1] of at most 10 nM. The Ki at human motilin receptor [2] was at most 10 nM.
The compound `CCC[C@@H]1NC(=O)[C@@H](C(C)C)NC(=O)[C@@H](Cc2cccc(F)c2)N[C@H](C)COc2ccccc2CCCNC1=O` [Compound 513] registered an IC50 at human motilin receptor [1] of at most 100 nM. Besides, the Ki at human motilin receptor [2] is at most 100 nM.
With `CC(C)[C@H]1NC(=O)[C@@H](Cc2cccc(Cl)c2)N[C@@H](C)COc2ccccc2CCCNC(=O)[C@H](CNC(=N)N)NC1=O` [Compound 516], on human motilin receptor [1], the IC50 was at most 100 nM.
`CC(C)[C@H]1NC(=O)[C@@H](Cc2cccc(F)c2)N[C@@H](C)COc2ccccc2CCCNC(=O)[C@H](CN(C)C)NC1=O` [Compound 529] displayed an IC50 against human motilin receptor [1] of at most 10 nM. On human motilin receptor [2], the Ki was at most 10 nM.
Compound `CC(C)[C@H]1NC(=O)[C@@H](Cc2cccc(C(F)(F)F)c2)NCCOc2ccccc2CCCNC(=O)[C@H](CN2CCCC2)NC1=O` [Compound 532] displayed an IC50 against human motilin receptor [1] of at most 100 nM. For the same compound, the Ki at human motilin receptor [2] is at most 10 nM.
With `CC(C)[C@H]1NC(=O)[C@@H](Cc2cccc(F)c2)N[C@@H](C)COc2ccccc2CCCNC(=O)[C@H](CN2CCCC2)NC1=O` [Compound 533], the IC50 on human motilin receptor [1] was at most 10 nM. In addition, the Ki on human motilin receptor [2] is at most 100 nM.
The compound `CC(C)[C@H]1NC(=O)[C@@H](Cc2cccc(F)c2)N[C@@H](C)COc2ccccc2CCCNC(=O)[C@H](CN2CCOCC2)NC1=O` [Compound 534] displayed an IC50 at human motilin receptor [1] of at most 10 nM. Further, the Ki at human motilin receptor [2] is at most 100 nM.
The corresponding values for `CC(C)[C@H]1NC(=O)[C@@H](Cc2cccc(F)c2)N[C@@H](C)COc2ccccc2CCCNC(=O)[C@H](CNc2ncccn2)NC1=O` [Compound 535] are at most 10 nM and at most 100 nM.
In the same order, the values of `Cc1cnnn1C[C@@H]1NC(=O)[C@@H](C(C)C)NC(=O)[C@@H](Cc2cccc(F)c2)N[C@@H](C)COc2ccccc2CCCNC1=O` [Compound 536] are at most 100 nM and at most 100 nM.
In the same order, the values of `CC(C)[C@H]1NC(=O)[C@@H](Cc2cccc(C(F)(F)F)c2)NCCOc2ccccc2CCCNC(=O)[C@H](CN=[N+]=[N-])NC1=O` [Compound 537] are at most 1 nM and at most 10 nM.
On human motilin receptor [1], `CC(C)[C@H]1NC(=O)[C@@H](Cc2cccc(F)c2)N[C@@H](C)COc2ccccc2CCCNC(=O)[C@H](CN=[N+]=[N-])NC1=O` [Compound 538] had an IC50 of at most 1 nM. For the same compound, the inhibition constant (Ki) at human motilin receptor [2] was at most 10 nM.
In the same order, the values of `CC(C)[C@H]1NC(=O)[C@@H](Cc2cccc(C(F)(F)F)c2)NCCOc2ccccc2CCCNC(=O)[C@H](Cn2cccc2)NC1=O` [Compound 539] are at most 1 nM and at most 10 nM.
In the same order, the values of `CC(C)[C@H]1NC(=O)[C@@H](Cc2cccc(F)c2)N[C@@H](C)COc2ccccc2CCCNC(=O)[C@H](Cn2cccc2)NC1=O` [Compound 540] are at most 1 nM and at most 10 nM.
The corresponding values for `CC(C)[C@H]1NC(=O)[C@@H](Cc2cccc(C(F)(F)F)c2)NCCOc2ccccc2CCCNC(=O)[C@H](CN)NC1=O` [Compound 542] are at most 10 nM and at most 100 nM.
`CC(C)[C@H]1NC(=O)[C@@H](Cc2cccc(F)c2)N[C@@H](C)COc2ccccc2CCCNC(=O)[C@H](CN)NC1=O` [Compound 543] registered an IC50 at human motilin receptor [1] of at most 100 nM. Further, on human motilin receptor [2], the inhibition constant Ki was at most 100 nM.
Consider `CC(C)[C@H]1NC(=O)[C@@H](Cc2cccc(F)c2)N[C@@H](C)COc2ccccc2C[C@H](C)CNC(=O)[C@H](CN)NC1=O` [Compound 544], for which the IC50 against human motilin receptor [1] is at most 1 nM. Also, the Ki at human motilin receptor [2] was at most 10 nM.
In the same order, the values of `CC(C)[C@H]1NC(=O)[C@@H](Cc2cccc(F)c2)N[C@@H](C)COc2ccccc2C[C@H](C)CNC(=O)[C@H](CN=[N+]=[N-])NC1=O` [Compound 545] are at most 1 nM and at most 10 nM.
The corresponding values for `CNC[C@@H]1NC(=O)[C@@H](C(C)C)NC(=O)[C@@H](Cc2cccc(F)c2)N[C@@H](C)COc2ccccc2C[C@H](C)CNC1=O` [Compound 546] are at most 1 nM and at most 10 nM.
The corresponding values for `CNC[C@@H]1NC(=O)[C@@H](C(C)C)NC(=O)[C@@H](Cc2cccc(C(F)(F)F)c2)NCCOc2ccccc2CCCNC1=O` [Compound 547] are at most 10 nM and at most 10 nM.
Regarding `CC[C@H](C)[C@H](NC(=O)[C@@H]1CCCN1C(=O)[C@@H](NC(=O)[C@@H](N)Cc1ccccc1)C(C)C)C(=O)N[C@@H](Cc1ccccc1)C(=O)N[C@H](C(=O)N[C@@H](Cc1ccc(O)cc1)C(=O)NCC(=O)N[C@@H](CCC(=O)O)C(=O)N[C@@H](CC(C)C)C(=O)N[C@@H](CCC(N)=O)C(=O)N[C@@H](CCCNC(=N)N)C(=O)N[C@@H](CCSC)C(=O)N[C@@H](CCC(N)=O)C(=O)N[C@@H](CCC(=O)O)C(=O)N[C@@H](CCCCN)C(=O)N[C@@H](CCC(=O)O)C(=O)N[C@@H](CCCNC(=N)N)C(=O)N[C@@H](CC(N)=O)C(=O)N[C@@H](CCCCN)C(=O)NCC(=O)N[C@@H](CCC(N)=O)C(=O)O)[C@@H](C)O` [motilin], on human motilin receptor [1] (reference agonist), the “approximate EC80 concentration” value is about 0.5 nM.
